Source: US20250332154A1, “USE OF NAPHTHOQUINE PHOSPHATE IN PREPARATION OF A MEDICAMENT FOR TREATING AUTOIMMUNE DISEASES” (SHANGHAI PHARMACEUTICALS INDUSTRY CO., LTD, priority 2022, published 2025)
Counter-ions that a name gives are not always drawn.

Experiments:
[1] = Non-specific cytotoxicity assay (MTT), mouse spleen lymphocytes; assay type: cell-based; details: BALB/c, mouse, mouse whole spleen lymphocytes
Protocol: BALB/c mice were sacrificed by cervical dislocation, and spleens were aseptically excised to prepare whole spleen lymphocytes. The cells were adjusted to the required concentration. The compound concentrations started at 250 μM and was diluted with a 4-fold gradient to obtain 10 concentrations: 250, 62.5, 15.625, 3.906, 0.977, 0.244, 0.061, 0.015, 0.004 and 0.001 μM.
A suspension of mouse spleen lymphocytes was inoculated into a 96-well plate at 8×10^5/well, and the above 10 concentration gradients of the compound were added. A corresponding cell control (i.e. spleen lymphocyte culture system without compound) and a RPMI 1640 culture medium background control (blank culture medium control) were set up. The cells were cultured in a 37° C., 5% CO2 incubator for 48 hours. Four hours before the end of the culture, 20 μl of 5 mg/ml MTT solution was added, and the reaction continued until the end of the culture (i.e. the aforementioned 48 hours). The supernatant was aspirated and discarded, 200 μl DMSO was added to each well to dissolve the crystals. […]. The absorbance value was measured at […] with a microplate reader (Spectra Max 190, Molecular Devices).

[2] = Non-specific cytotoxicity assay (MTT), RAW264.7; assay type: cell-based, mouse; details: mouse, RAW264.7 cells
Protocol: RAW264.7 cells were inoculated into a 96-well plate at 1×10^5/well and allowed to adhere to the wall for 6 hours in a 37° C., 5% CO2 incubator. […] A corresponding solvent control (cell control) and a culture medium background control (blank control) were set up. The cells were cultured in a 37° C., 5% CO2 incubator for 48 hours. Fifteen minutes before the end of the culture, 20 μl of 5 mg/ml MTT was added. At the end of the culture, the supernatant was aspirated and discarded, 200 μl DMSO was added to dissolve the crystals.

IL-1β = IL-1β production by LPS-induced RAW264.7 cells (ELISA); assay type: cell-based, mouse; details: for IC50: Mus musculus, LPS 10 μg/ml, RAW264.7, read-out: IB-1β IC50; for production of LPS-induced IL-1β: RAW264.7, in words
Protocol: (§1) RAW264.7 cells were inoculated into a 96-well plate at 1×10^5/well and allowed to adhere to the wall for 6 hours in a 37° C., 5% CO2 incubator. […] After the cells adhered to the wall, the stimulant LPS (final concentration: 10 μg/ml) and the gradient-diluted compounds were added. A corresponding stimulation control and a cell control (without stimulation) were set up. After the end of the culture, the cell culture supernatants were collected, and the levels of TNF-α, IL-1β and IL-6 were measured by ELISA.

IL-6 [3] = test: IL-6 production by LPS-induced RAW264.7 cells (ELISA); assay type: cell-based, mouse; details: for production of IL-6: LPS-induced RAW264.7, in words; for IC50: Mus musculus, LPS 10 μg/ml, RAW264.7
Protocol: as §1

IL-6 [4] = test: IL-6 secretion by TLRs-L-stimulated mouse whole spleen lymphocytes (ELISA); assay type: cell-based; details: Lymphocyte, 48 h
Protocol: BALB/c mice were sacrificed by cervical dislocation, and spleens were aseptically excised to prepare whole spleen lymphocytes. The cells were adjusted to 5×10^6 cells/ml. Hydroxychloroquine sulfate was diluted with a 3-fold gradient into 3 concentrations starting from 30 μM: 30, 10 and 3 μM; naphthoquine phosphate was diluted with a 3-fold gradient into 3 concentrations starting from 10 μM: 10, 3 and 1 μM.
Mouse spleen lymphocytes were inoculated into a 96-well plate at 100 μl/well, and the stimulant TLR4-L (final concentration: 10 μg/ml), TLR7-L (final concentration: 5 μg/ml) or TLR9-L (final concentration: 1 μM) and the compounds diluted with the above concentration gradients were added. A corresponding stimulation control and a cell control (without stimulation) were set up. The cells were cultured in a 37° C., 5% CO2 incubator for 48 hours. After the end of the culture, the cell culture supernatants were collected, and the levels of IL-1β, IL-6, and IL-10 were measured by ELISA.

[5] = Non-specific cytotoxicity assay (MTT), purified mouse B cells; assay type: cell-based; details: BALB/c
Protocol: (§2) BALB/c mice were sacrificed by cervical dislocation, and spleens were aseptically excised to prepare spleen lymphocytes. The cells were adjusted to 1×10^8 cells/ml, blocked with 2.4G2 (final concentration: 10 μg/ml) for 20 min, cultured with PE-CD19 (final concentration: 5 μg/ml) for 20 min, washed with MACS buffer, centrifuged at 4° C., 300G for 10 min, 100 μl anti-PE beads were added per 1×10^8 cells, incubated with 900 μl MACS buffer for 15 min, washed with MACS buffer, centrifuged at 4° C., 300G for 10 min. The supernatant was discarded. 500 μl MACS buffer was added per 1×10^8 cells to resuspend the cells. MACS column was used for separation. Magnetically labeled cells were retained on the column. The MACS column was removed from the magnetic field and then eluted.
Hydroxychloroquine sulfate was diluted with a 2-fold gradient into 3 concentrations starting from 8 μM: 8, 4 and 2 μM. Naphthoquine phosphate was diluted with a 2-fold gradient into 3 concentrations starting from 0.5 μM: 0.5, 0.25, 0.125 μM. Purified mouse B cells were inoculated into a 96-well plate at 1×10^6/well, and gradient diluted compounds were added. A corresponding blank control and a cell control were set up. The cells were cultured in a 37° C., 5% CO2 incubator for 48 hours. […] The absorbance value was measured at 570 nm with a microplate reader (Spectra Max 190, Molecular Devices).

IL-6 [6] = test: IL-6 secretion by TLRs-L-stimulated purified mouse B cells (ELISA); assay type: cell-based; details: B-cell, 48 h, stimulant TLR4-L 10 μg/ml
Protocol: as §2
A suspension of purified mouse B cells was inoculated into a 96-well plate at 4×10^5/well. Hydroxychloroquine sulfate was diluted with a 2-fold gradient into 3 concentrations starting from 8 μM: 8, 4 and 2 μM. Naphthoquine phosphate was diluted with a 2-fold gradient into 3 concentrations 0.5 μM.: 0.5, 0.25 and 0.125 μM. […] After the end of the culture, the cell culture supernatants were collected, and the levels of TNF-α, IL-1β, and IL-6 were measured by ELISA.

CCN(CCO)CCCC(C)Nc1ccnc2cc(Cl)ccc12 (stereo not shown) [Hydroxychloroquine Sulfate, hydroxychloroquine sulfate]
CC50 at 48 h [1]: 25.2 µM | CC50 at 48 h [2]: 24.4 µM | IC50 (IL-1β): 3.5 µM | production of LPS-induced IL-1β (IL-1β): significantly inhibited | production of IL-6 (IL-6 [3]): no significant effect | IC50 (IL-6 [3]): 16.5 µM | IC50 (IL-6 [4]; stimulant TLR4-L 10 μg/ml): 15.3 µM | IC50 (IL-6 [4]; stimulant TLR7-L 5 μg/ml): 1.91 µM | IC50 (IL-6 [4]; stimulant TLR9-L 1 μM): 3.92 µM | CC50 at 48 h [5]: 19.7 µM | IC50 (IL-6 [6]): > 8 µM

CC(C)(C)NCc1cc(Nc2ccnc3cc(Cl)ccc23)c2c(c1O)CCCC2.O=P(O)(O)O.O=P(O)(O)O [Naphthoquine Phosphate, Naphthoquine phosphate]
CC50 at 48 h [1]: 1.45 µM | CC50 at 48 h [2]: 8.73 µM | IC50 (IL-1β): 1.59 µM | production of LPS-induced IL-1β (IL-1β): significantly inhibited | production of IL-6 (IL-6 [3]): no significant effect | IC50 (IL-6 [3]): > 10 µM | IC50 (IL-6 [4]; stimulant TLR4-L 10 μg/ml): 0.63 µM | IC50 (IL-6 [4]; stimulant TLR7-L 5 μg/ml): 0.007 µM | IC50 (IL-6 [4]; stimulant TLR9-L 1 μM): 0.29 µM | CC50 at 48 h [5]: 1.98 µM | IC50 (IL-6 [6]): 0.5 µM
